We go through ten compounds from patent US10000471B2, “Pyrazole P38 map kinase inhibitors” (Respivert Limited, priority 2010, dated 2018).

The target of data set [1] is T1, p38 MAPKα isoform (MAPK14) (Homo sapiens, UniProt Q16539).
T1 construct: purchased Invitrogen
The data set can be described thus: Enzyme inhibition assay (FRET, Z-LYTE), p38 MAPKα via MAPKAP-K2 activation. The format is biochemical. The note with it: read-out: Enzyme Inhibition IC50 p38α. The gist of the method:
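Z-LYTE FRET format, in which protease cleaves only non-phosphorylated peptide, read after 1 h development. Compound was mixed with p38 MAPKα for 2 h at RT, and inhibition was gauged from MAPKAP-K2 activation/phosphorylation rather than directly. Percent inhibition against an uninhibited control was fitted to give IC50.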

The next data set addresses T2, p38 MAPKγ (MAPK12) (Homo sapiens, UniProt P53778).
T2 construct: purchased Invitrogen
T2 sequence (P53778 1-367): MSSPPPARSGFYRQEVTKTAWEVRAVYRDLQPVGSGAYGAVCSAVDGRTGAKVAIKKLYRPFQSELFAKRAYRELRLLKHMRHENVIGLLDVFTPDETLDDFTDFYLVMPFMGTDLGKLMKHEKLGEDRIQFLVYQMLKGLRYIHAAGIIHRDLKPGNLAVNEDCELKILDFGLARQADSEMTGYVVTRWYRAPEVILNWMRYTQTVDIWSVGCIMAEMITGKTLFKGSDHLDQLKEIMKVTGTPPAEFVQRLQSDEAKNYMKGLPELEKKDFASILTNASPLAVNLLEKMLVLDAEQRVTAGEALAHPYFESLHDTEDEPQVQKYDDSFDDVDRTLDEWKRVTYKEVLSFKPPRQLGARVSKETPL
The data set can be described thus: Enzyme inhibition assay (FRET, Z-LYTE), p38 MAPKγ. The format is biochemical. The following applies: read-out: Enzyme Inhibition IC50 p38γ. In short, it runs like this:
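Z-LYTE FRET readout: after 1 h kinase reaction (ATP 100 μM, peptide 2 μM) following 2 h RT enzyme–compound preincubation in HEPES, protease cleaves only unphosphorylated peptide. Percent inhibition from donor/acceptor ratio relative to control; IC50 fitted from the curve.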

Data set [2] concerns TNFα release in THP-1 cells. The data set can be described thus: LPS-induced TNFα release in THP-1 cells. The format is cell-based, human. The gist of the method: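 IC50 derived from concentration-response of TNFα inhibition relative to vehicle, with TNFα quantified by sandwich ELISA in supernatants. THP-1 cells were challenged 4 hr with LPS (E. coli, 3 μg/mL).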
Data set [3] relates to TNFα release in d-U937 cells. The data set can be described thus: LPS-induced TNFα release in d-U937 cells. The format is cell-based, human. The gist of the method:
(§1)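 Sandwich ELISA of TNFα and IL-8 in supernatants after 4 hr 0.1 μg/mL LPS (E. coli O111:B4) challenge of U937 cells differentiated with PMA 100 ng/ml for 48–72 hr, compound added 2 hr beforehand. IL-8: IC50 from inhibition versus vehicle; TNFα: REC50 from inhibition as percentage of 10 μg/mL BIRB796 effect.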

Data set [4] has as its system IL-8 release in d-U937 cells. The data set can be described thus: LPS-induced IL-8 release in d-U937 cells. The format is cell-based, human. In short, it runs like this: as §1
Data set [5] relates to ICAM-1 induction in BEAS2B cells. The data set can be described thus: Poly I:C-induced ICAM-1 induction in BEAS2B cells. The format is cell-based, human. The following applies: read-out: PolyIC/ICAM1 IC50 BEAS2B. The gist of the method:
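IC50 reflects inhibition of cell-surface ICAM-1 relative to vehicle, read by ELISA (OD450 against 655 nm) and divided by crystal violet OD595 for cell number. Readings were taken 18 hr after transfection of 1 μg/mL poly I:C into BEAS2B cells. Compound was added 2 hr before stimulation.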

The subject of data set [6] is Differentiated U937 cells. The data set can be described thus: Cell viability MTT assay. The format is cell-based, human. The note with it: negative = apparent increase in viability; for MTT Assay (Viability) 4 h d-U937, percentage loss of cell viability: 4 hr in 5% FCS; for MTT Assay (Viability) 24 h d-U937, percentage loss of cell viability: 24 h in 10% FCS. The gist of the method:
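Differentiated U937 cells pre-incubated with compound either 4 hr in 5% FCS or 24 h in 10% FCS, then 1 hr MTT. Formazan dissolved in DMSO, absorbance at 550 nm. Percentage viability loss relative to 0.5% DMSO vehicle; apparent increases appear as negative percentages.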

Where [7] appears, read: Homo sapiens, dU937, relative to 10 μg/mL BIRB796, read-out: LPS/TNFα REC50 d-U937.

Read-outs that look alike come from different tables or passages of the source.

T1 sequence (Q16539 whole entry, canonical isoform): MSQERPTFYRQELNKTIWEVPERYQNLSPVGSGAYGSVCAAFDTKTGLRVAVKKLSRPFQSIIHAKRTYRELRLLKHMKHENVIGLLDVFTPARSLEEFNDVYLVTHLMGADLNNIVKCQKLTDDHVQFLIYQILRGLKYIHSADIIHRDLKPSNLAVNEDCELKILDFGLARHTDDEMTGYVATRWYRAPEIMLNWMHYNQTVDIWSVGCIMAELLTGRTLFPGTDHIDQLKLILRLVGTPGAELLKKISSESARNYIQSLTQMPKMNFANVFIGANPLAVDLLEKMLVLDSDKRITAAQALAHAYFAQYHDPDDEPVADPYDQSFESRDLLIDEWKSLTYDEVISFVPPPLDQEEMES

Turning to `CC(C)(C)c1cc(NC(=O)Nc2ccc(Oc3ccnc(NC(=O)N4CCCC4)c3)c(Cl)c2Cl)n(-c2ccc(CO)cc2)n1` [Example 77, N-(4-(4-(3-(3-tert-butyl-1-(4-hydroxymethylphenyl)-1H-pyrazol-5-yl)ureido)-2,3-dichlorophenoxy)pyridin-2-yl)pyrrolidine-1-carboxamide], the IC50 was 18.4 nM in data set [1]; 24.3 nM at p38 MAPKγ (MAPK12); 0.4 nM in data set [2] (Homo sapiens); 0.4 nM in data set [4] (Homo sapiens, dU937); 2.5 nM in data set [5] (Homo sapiens, BEAS-2B). Besides, in data set [3] (setting [7]), the EC50 was determined as 0.2 nM. Further, the “MTT Assay (Viability) 4 h d-U937, percentage loss of cell viability” value in data set [6] is recorded as −8.8%. Further, the “MTT Assay (Viability) 24 h d-U937, percentage loss of cell viability” value in data set [6] amounted to 53.3%.
Turning to `COc1ccc(-n2nc(C(C)(C)C)cc2NC(=O)Nc2ccc(Oc3ccnc(NC(=O)NC4CC4)c3)c(C#N)c2Cl)cc1` [Example 78, 1-(3-tert-butyl-1-(4-methoxyphenyl)-1H-pyrazol-5-yl)-3-(2-chloro-3-cyano-4-(2-(3-cyclopropylureido)pyridin-4-yloxy)phenyl) urea], the IC50 stood at 84.6 nM in data set [1]; 96.2 nM on p38 MAPKγ (MAPK12); 1.4 nM in data set [2] (Homo sapiens); 2.2 nM in data set [4] (Homo sapiens, dU937); 2.2 nM in data set [5] (Homo sapiens, BEAS-2B). Further, the EC50 in data set [3] (setting [7]) was determined as 1.6 nM. In data set [6], the “MTT Assay (Viability) 4 h d-U937, percentage loss of cell viability” value came to 1.0%. In addition, the “MTT Assay (Viability) 24 h d-U937, percentage loss of cell viability” value in data set [6] was 20.9%.
With `COc1ccc(-n2nc(C(C)(C)C)cc2NC(=O)Nc2ccc(Oc3ccnc(NC(=O)N4CCCC4)c3)c(C#N)c2Cl)cc1` [Example 79, N-(4-(4-(3-(3-tert-butyl-1-(4-methoxyphenyl)-1H-pyrazol-5-yl)ureido)-3-chloro-2-cyanophenoxy)pyridin-2-yl)pyrrolidine-1-carboxamide], the IC50 worked out at 32.3 nM in data set [1]; 36.6 nM on p38 MAPKγ (MAPK12); 0.5 nM in data set [2] (Homo sapiens); 6.6 nM in data set [4] (Homo sapiens, dU937); 1.3 nM in data set [5] (Homo sapiens, BEAS-2B). The EC50 in data set [3] (setting [7]) was determined as 0.4 nM. For the same compound, the “MTT Assay (Viability) 4 h d-U937, percentage loss of cell viability” value in data set [6] is reported as −13.9%. For the same compound, the “MTT Assay (Viability) 24 h d-U937, percentage loss of cell viability” value in data set [6] was found to be 23.2%.
For the compound `COc1ccc(-n2nc(C(C)(C)C)cc2NC(=O)Nc2ccc(Oc3ccnc(NC(=O)N4CC[C@@H](N(C)C)C4)c3)c(Cl)c2Cl)cc1` [Example 81, (R)-N-(4-(4-(3-(3-tert-butyl-1-(4-methoxyphenyl)-1H-pyrazol-5-yl)ureido)-2,3-dichlorophenoxy)pyridin-2-yl)-3-(dimethylamino) pyrrolidine-1-carboxamide], the IC50 amounted to 7.7 nM in data set [1]; 58.5 nM on p38 MAPKγ (MAPK12); 1.1 nM in data set [2]; 4.9 nM in data set [4]; 14 nM in data set [5]. For the same compound, the EC50 in data set [3] (relative to 10 μg/mL BIRB796, read-out: LPS/TNFα REC50 d-U937) came out at 0.8 nM. The “MTT Assay (Viability) 4 h d-U937, percentage loss of cell viability” value in data set [6] was −8.7%. Further, the “MTT Assay (Viability) 24 h d-U937, percentage loss of cell viability” value in data set [6] came out at 33.3%.
In the case of `COc1ccc(-n2nc(C(C)(C)C)cc2NC(=O)Nc2ccc(Oc3ccnc(NC(=O)N4CC[C@H](N(C)C)C4)c3)c(Cl)c2Cl)cc1` [Example 82, (S)-N-(4-(4-(3-(3-tert-butyl-1-(4-methoxyphenyl)-1H-pyrazol-5-yl)ureido)-2,3-dichlorophenoxy)pyridin-2-yl)-3-(dimethylamino) pyrrolidine-1-carboxamide], the IC50 in data set [1] was 14.1 nM; on p38 MAPKγ (MAPK12), 33.6 nM; in data set [2] (Homo sapiens), 0.3 nM; in data set [4] (Homo sapiens, dU937) it was 4.6 nM; in data set [5] (Homo sapiens, BEAS-2B), 2.1 nM. In data set [3] (setting [7]), the EC50 stood at 1.8 nM. Also, the “MTT Assay (Viability) 4 h d-U937, percentage loss of cell viability” value in data set [6] is −13.2%. Besides, the “MTT Assay (Viability) 24 h d-U937, percentage loss of cell viability” value in data set [6] is given as 20.5%.
Take `CN(C)[C@H]1CCN(C(=O)Nc2cc(Oc3ccc(NC(=O)Nc4cc(C(C)(C)C)nn4-c4ccc(CO)cc4)c(Cl)c3Cl)ccn2)C1` [Example 83, (S)-N-(4-(4-(3-(3-tert-butyl-1-(4-hydroxymethylphenyl)-1H-pyrazol-5-yl)ureido)-2,3-dichlorophenoxy)pyridin-2-yl)-3-(dimethyl-amino)pyrrolidine-1-carboxamide]: the IC50 in data set [1] came to 6.7 nM; at p38 MAPKγ (MAPK12), 19.8 nM; in data set [2] (Homo sapiens) it was 0.7 nM; in data set [4] (Homo sapiens, dU937), 34 nM; in data set [5] (Homo sapiens, BEAS-2B), 2.4 nM. For the same compound, the EC50 in data set [3] (setting [7]) was determined as 1.7 nM. Also, in data set [6], the “MTT Assay (Viability) 4 h d-U937, percentage loss of cell viability” value is recorded as −9.9%. In data set [6], the “MTT Assay (Viability) 24 h d-U937, percentage loss of cell viability” value turned out to be 34.3%.
Regarding `COc1cc(-n2nc(C(C)(C)C)cc2NC(=O)Nc2ccc(Oc3ccnc(NC(=O)N4CC[C@H](N(C)C)C4)c3)c(Cl)c2Cl)ccc1CO` [Example 84, (S)-N-(4-(4-(3-(3-tert-butyl-1-(4-hydroxymethyl-3-methoxyphenyl)-1H-pyrazol-5-yl)ureido)-2,3-dichlorophenoxy)pyridin-2-yl)-3-(dimethylamino)pyrrolidine-1-carboxamide], the IC50 in data set [1] amounted to 13.8 nM; at p38 MAPKγ (MAPK12) it was 27 nM; in data set [2] (Homo sapiens) it was 1.2 nM; in data set [4] (Homo sapiens, dU937) it was 9.6 nM; in data set [5] (Homo sapiens, BEAS-2B), 2.6 nM. Moreover, the EC50 in data set [3] (setting [7]) came to 1.4 nM. Moreover, the “MTT Assay (Viability) 4 h d-U937, percentage loss of cell viability” value in data set [6] turned out to be 3.2%. Further, the “MTT Assay (Viability) 24 h d-U937, percentage loss of cell viability” value in data set [6] was 56.7%.
As to `COc1ccc(-n2nc(C(C)(C)C)cc2NC(=O)Nc2ccc(Oc3ccnc(NC(=O)N4CCC(O)C4)c3)c(Cl)c2Cl)cc1` (centres unmarked) [Example 85, N-(4-(4-(3-(3-tert-butyl-1-(4-methoxyphenyl)-1H-pyrazol-5-yl)ureido)-2,3-dichlorophenoxy)pyridin-2-yl)-3-hydroxypyrrolidine-1-carboxamide], the IC50 amounted to 12.8 nM in data set [1]; 27.2 nM at p38 MAPKγ (MAPK12); 0.3 nM in data set [2] (Homo sapiens); 5.4 nM in data set [4] (Homo sapiens, dU937); 0.6 nM in data set [5] (Homo sapiens, BEAS-2B). For the same compound, in data set [3] (setting [7]), the EC50 came out at 1.1 nM. For the same compound, the “MTT Assay (Viability) 4 h d-U937, percentage loss of cell viability” value in data set [6] is −25.1%. Also, the “MTT Assay (Viability) 24 h d-U937, percentage loss of cell viability” value in data set [6] stood at 58.6%.
Regarding `COc1ccc(-n2nc(C(C)(C)C)cc2NC(=O)Nc2ccc(Oc3ccnc(NC(=O)N4CCCC4(C)C)c3)c(Cl)c2Cl)cc1` [Example 86, N-(4-(4-(3-(3-tert-butyl-1-(4-methoxyphenyl)-1H-pyrazol-5-yl)ureido)-2,3-dichlorophenoxy)pyridin-2-yl)-2,2-dimethylpyrrolidine-1-carboxamide], the IC50 in data set [1] turned out to be 138 nM; on p38 MAPKγ (MAPK12) it was 436 nM; in data set [2] (Homo sapiens) it was 0.8 nM; in data set [4] (Homo sapiens, dU937), 2.6 nM; in data set [5] (Homo sapiens, BEAS-2B) it was 8 nM. The EC50 in data set [3] (setting [7]) turned out to be 2.7 nM. Besides, the “MTT Assay (Viability) 4 h d-U937, percentage loss of cell viability” value in data set [6] is reported as −5.1%. Further, the “MTT Assay (Viability) 24 h d-U937, percentage loss of cell viability” value in data set [6] was 26.7%.
As to `COc1ccc(-n2nc(C(C)(C)C)cc2NC(=O)Nc2ccc(Oc3ccnc(NC(=O)N4CCC(N(C)C)CC4)c3)c(Cl)c2Cl)cc1` [Example 87, N-(4-(4-(3-(3-tert-butyl-1-(4-methoxyphenyl)-1H-pyrazol-5-yl)ureido)-2,3-dichlorophenoxy)pyridin-2-yl)-4-(dimethylamino)piperidine-1-carboxamide], the IC50 was found to be 14.5 nM in data set [1]; 16.9 nM at p38 MAPKγ (MAPK12); 1 nM in data set [2] (Homo sapiens); 2.1 nM in data set [4] (Homo sapiens, dU937); 1 nM in data set [5] (Homo sapiens, BEAS-2B). Moreover, the EC50 in data set [3] (setting [7]) was found to be 1.7 nM. Also, the “MTT Assay (Viability) 4 h d-U937, percentage loss of cell viability” value in data set [6] is given as 7.1%. In addition, the “MTT Assay (Viability) 24 h d-U937, percentage loss of cell viability” value in data set [6] stood at 39.3%.
